Results published in article PMC7265429, “Characterization of a new small-molecule inhibitor of HDAC6 in glioblastoma” (Cell Death & Disease, 2020).

Tested on: GNS166 cells
Experiment: Microarray whole-transcriptome gene expression analysis
Format: cell-based, human
Conditions: DMSO vs SAHA, downregulated
Experimental: Whole-transcriptome analysis was performed from 300 ng of RNA using HuGene-2_0-st-v1 expression array (Affymetrix), which covers 48,226 transcripts. Raw data were first checked for quality purposes through the Affymetrix® Expression Console™ Software v1.4.1 and TAC software v4.0. Then, data were normalized using the Robust Multi-array Average (RMA) and analyzed by Limma tool. Probesets with FDR-corrected p-values smaller than 0.05 were selected. Functional enrichment on Gene Ontology (GO) biological processes was performed on a smaller subset of the differentially expressed genes (corrected p-value < 0.001) by means of Broad Institute GSEA. […] The data that support this study have been deposited in NCBI´s Gene Expression Omnibus and are accessible through GEO series accession number GSE143887.

In the case of `O=C(CCCCCCC(=O)Nc1ccccc1)NO` [SAHA, Suberoylanilide hydroxamic acid], the “logFC GTF2IRD2” value (transcript TC0700011518.hg.1) is reported as -2.067, the “logFC GBAS” value (transcript TC0700013363.hg.1) is reported as -1.318 and the “logFC NDUFB2” value (transcript TC0700013468.hg.1) is reported as -1.3. The “logFC MSRA” value (transcript TC0800006692.hg.1) was -1.45, the “logFC CYC1” value (transcript TC0800009239.hg.1) was -1.06 and the “logFC PBK” value (transcript TC0800009970.hg.1) was -1.706. The “logFC ANK1” value (transcript TC0800010252.hg.1) was -2.257, the “logFC NSMAF” value (transcript TC0800010553.hg.1) was -1.838 and the “logFC CPA6” value (transcript TC0800010708.hg.1) was -2.501. For the same compound, the “logFC HAS2” value (transcript TC0800011646.hg.1) was -1.946, the “logFC FXN” value (transcript TC0900007494.hg.1) was -0.9868 and the “logFC NEK6” value (transcript TC0900008716.hg.1) was -1.139. The “logFC ARHGEF39” value (transcript TC0900009948.hg.1) was -1.156, the “logFC KIAA0368” value (transcript TC0900011200.hg.1) was -1.9364 and the “logFC SUSD1” value (transcript TC0900011220.hg.1) was -2.309. The “logFC PHF19” value (transcript TC0900011388.hg.1) was -2.061, the “logFC CIZ1” value (transcript TC0900011626.hg.1) was -1.331 and the “logFC TOR1A” value (transcript TC0900011709.hg.1) was -1.605. The “logFC VAV2” value (transcript TC0900011864.hg.1) was -1.105, the “logFC ANAPC16” value (transcript TC1000007986.hg.1) was -1.273 and the “logFC PLEKHS1” value (transcript TC1000008955.hg.1) was -2.168. The “logFC SEPHS1” value (transcript TC1000009844.hg.1) was -1.411, the “logFC EPC1” value (transcript TC1000010256.hg.1) was -1.207 and the “logFC PBLD” value (transcript TC1000010843.hg.1) was -1.5. The “logFC DNAJB12” value (transcript TC1000010990.hg.1) was -1.539, the “logFC PRDX3” value (transcript TC1000011993.hg.1) was -0.8845 and the “logFC MKI67” value (transcript TC1000012235.hg.1) was -1.335. The “logFC AS3MT” value (transcript TC1000012496.hg.1) was -1.5939, the “logFC PARVA” value (transcript TC1100006879.hg.1) was -1.499 and the “logFC CCND1” value (transcript TC1100008236.hg.1) was -0.9478. For the same compound, the “logFC TSKU” value (transcript TC1100008514.hg.1) was -1.319, the “logFC NTM” value (transcript TC1100009561.hg.1) was -2.198 and the “logFC IFITM3” value (transcript TC1100009657.hg.1) was -1.487. For the same compound, the “logFC FOSL1” value (transcript TC1100011259.hg.1) was -2.603, the “logFC TRIM22” value (transcript TC1100012957.hg.1) was -3.047 and the “logFC CHEK1” value (transcript TC1100013111.hg.1) was -0.9424. The “logFC CDCA5” value (transcript TC1100013184.hg.1) was -1.4587, the “logFC CLCF1” value (transcript TC1100013192.hg.1) was -1.898 and the “logFC TSPAN9” value (transcript TC1200006520.hg.1) was -1.358. The “logFC RAD51AP1” value (transcript TC1200006561.hg.1) was -1.95, the “logFC C12orf57” value (transcript TC1200006656.hg.1) was -1.605 and the “logFC ESPL1” value (transcript TC1200007707.hg.1) was -1.687. The “logFC IKZF4” value (transcript TC1200007822.hg.1) was -1.324, the “logFC FOXM1” value (transcript TC1200009621.hg.1) was -2.01 and the “logFC CDCA3” value (transcript TC1200009759.hg.1) was -2.054. For the same compound, the “logFC MFAP5” value (transcript TC1200009834.hg.1) was -1.349, the “logFC TAS2R10” value (transcript TC1200009919.hg.1) was -2.012 and the “logFC MCRS1” value (transcript TC1200010633.hg.1) was -1.188. The “logFC MMAB” value (transcript TC1200011873.hg.1) was -1.164, the “logFC WSB2” value (transcript TC1200012105.hg.1) was -1.343 and the “logFC CIT” value (transcript TC1200012143.hg.1) was -1.292. The “logFC TAPBPL” value (transcript TC1200012584.hg.1) was -1.336, the “logFC PRR4” value (transcript TC1200012755.hg.1) was -1.713 and the “logFC R3HDM2” value (transcript TC1200012808.hg.1) was -1.233. The “logFC PHF11” value (transcript TC1300007167.hg.1) was -1.841, the “logFC ITGBL1” value (transcript TC1300007870.hg.1) was -1.539 and the “logFC DIAPH3” value (transcript TC1300009088.hg.1) was -1.66. The “logFC GAS6” value (transcript TC1300009924.hg.1) was -1.149, the “logFC RHOJ” value (transcript TC1400007404.hg.1) was -2.1714 and the “logFC BTBD6” value (transcript TC1400008476.hg.1) was -1.003. For the same compound, the “logFC AJUBA” value (transcript TC1400010715.hg.1) was -1.776, the “logFC ARHGAP11B” value (transcript TC1500006785.hg.1) was -1.512 and the “logFC CCNB2” value (transcript TC1500007392.hg.1) was -2.179. For the same compound, the “logFC TPM1” value (transcript TC1500007510.hg.1) was -1.243, the “logFC KIF23” value (transcript TC1500007699.hg.1) was -1.664 and the “logFC MAN2A2” value (transcript TC1500008341.hg.1) was -1.396. The “logFC LCTL” value (transcript TC1500009830.hg.1) was -1.502, the “logFC PRC1” value (transcript TC1500010463.hg.1) was -1.211 and the “logFC ARHGAP11B” value (transcript TC1500010707.hg.1) was -1.7076. For the same compound, the “logFC C16orf62” value (transcript TC1600007113.hg.1) was -1.881, the “logFC PLK1” value (transcript TC1600007235.hg.1) was -1.599 and the “logFC ARL2BP” value (transcript TC1600007992.hg.1) was -1.083. For the same compound, the “logFC SHCBP1” value (transcript TC1600010168.hg.1) was -1.56, the “logFC XAF1” value (transcript TC1700006709.hg.1) was -1.919 and the “logFC MPDU1” value (transcript TC1700006758.hg.1) was -1.716. The “logFC GOSR1” value (transcript TC1700007454.hg.1) was -1.325, the “logFC CCL2” value (transcript TC1700007557.hg.1) was -1.8857 and the “logFC ABCC3” value (transcript TC1700008263.hg.1) was -2.846. For the same compound, the “logFC BIRC5” value (transcript TC1700009043.hg.1) was -1.565, the “logFC AURKB” value (transcript TC1700009679.hg.1) was -1.67 and the “logFC CENPV” value (transcript TC1700009888.hg.1) was -1.862. For the same compound, the “logFC MED24” value (transcript TC1700010599.hg.1) was -1.405, the “logFC TOP2A” value (transcript TC1700010618.hg.1) was -1.269 and the “logFC CCDC43” value (transcript TC1700010841.hg.1) was -0.9856. The “logFC ALYREF” value (transcript TC1700012078.hg.1) was -1.381, the “logFC SPAG5” value (transcript TC1700012380.hg.1) was -2.042 and the “logFC SERPINB8” value (transcript TC1800009245.hg.1) was -1.496. The “logFC NFIC” value (transcript TC1900006628.hg.1) was -1.238 and the “logFC SYDE1” value (transcript TC1900007208.hg.1) was -1.288.
